Results published in patent US20230065562A1, “DUAL CONTROLS FOR THERAPEUTIC CELL ACTIVATION OR ELIMINATION” (Bellicum Pharmaceuticals, Inc., priority 2015, published 2023).

Experiments:
[1] = tested on: iCasp9-transduced MSCs; assay: Apoptosis studies in vitro in iCasp9-ΔCD19 transduced MSCs; format: cell-based, human
Experimental: Undifferentiated MSCs. The chemical inducer of dimerization (CID) (AP20187; ARIAD Pharmaceuticals, Cambridge, Mass.) was added at 50 nM to iCasp9-transduced MSCs cultures in complete medium. Apoptosis was evaluated 24 hours later by FACS analysis, after cell harvest and staining with annexin V-PE and 7-AAD in annexin V binding buffer (BD Biosciences, San Diego, Calif.). Control iCasp9-transduced MSCs were maintained in culture without exposure to CID.
Differentiated MSCs. Transduced MSCs were differentiated as presented above. At the end of the differentiation period, CID was added to the differentiation media at 50 nM. Cells were stained appropriately for the tissue being studied, as presented above, and a contrast stain (methylene azure or methylene blue) was used to evaluate the nuclear and cytoplasmic morphology. In parallel, tissues were processed for terminal deoxynucleotidyl-transferase dUTP nick end labeling (TUNEL) assay as per manufacturer instructions (In Situ Cell Death Detection Kit, Roche Diagnostics, Mannheim, Germany). For each time point, four random fields were photographed at a final magnification of 40× and the images were analyzed with ImageJ software version 1.430 (NIH, Bethesda, Md.). Cell density was calculated as the number of nuclei (DAPI positivity) per unit of surface area (in mm^2). The percentage of apoptotic cells was determined as the ratio of the number of nuclei with positive TUNEL signal (FITC positivity) to the total number of nuclei. Controls were maintained in culture without CID.

[2] = tested on: T cells expressing iC9; assay: T cell killing assay with caspase 3/7 green reagent monitored by IncuCyte, iC9; format: cell-based, human; details: increasing doses, PBMCs from 3 donors, FIG. 108B
From the text: (§1) To determine the functionality of these switches in activated T cells, retroviral supernatants were produced and transduced into PBMCs activated from 3 separate donors.

[3] = biological target: T1, iRC9 (Homo sapiens, UniProt P42345+P62942); assay: Incucyte/casp3/7 and SEAP assays in transfected 293 cells (FIG. 107); format: cell-based
T1 construct: expressed in transfected cells; host or cells: 293 cells
T1 sequence (P42345 2025-2113): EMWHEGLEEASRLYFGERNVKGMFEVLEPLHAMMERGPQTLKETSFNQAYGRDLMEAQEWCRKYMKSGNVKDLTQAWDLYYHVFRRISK
T1 sequence (P62942 2-107): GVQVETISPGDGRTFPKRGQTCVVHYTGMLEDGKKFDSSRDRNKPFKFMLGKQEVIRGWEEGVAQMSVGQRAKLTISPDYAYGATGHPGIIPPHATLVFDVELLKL
T1 sequence (P55211 135-416 partner limits assumed): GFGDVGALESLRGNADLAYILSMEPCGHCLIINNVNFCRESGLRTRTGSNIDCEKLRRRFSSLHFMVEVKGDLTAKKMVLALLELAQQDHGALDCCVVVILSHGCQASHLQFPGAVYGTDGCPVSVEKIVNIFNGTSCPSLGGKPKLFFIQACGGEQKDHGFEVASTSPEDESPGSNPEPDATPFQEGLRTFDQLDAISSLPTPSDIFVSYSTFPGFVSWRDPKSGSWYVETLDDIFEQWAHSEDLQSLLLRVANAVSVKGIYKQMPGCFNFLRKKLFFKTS
Experimental: FIG. 107. […] 293 cells were seeded at 300,000 cells/well in a 6-well plate and allowed to grow for 2 days. After 48 h, cells were transfected with 1 μg of experimental plasmids. Cells were harvested 48 h after transfection and diluted 2.5× their original volume.

[4] = tested on: T cells expressing ΔC9 alone (pBP1501); assay: T cell killing assay with caspase 3/7 green reagent monitored by IncuCyte, negative control ΔC9; format: cell-based, human; details: increasing doses, FIG. 108B
From the text: as §1

[5] = biological target: iC9 (pBP220) (Homo sapiens, UniProt P62942, F37V); assay: SRα-SEAP assay of drug specificity, iC9 switch, 293 cells; details: SRα-SEAP reporter, FIG. 108A
Sequence of iC9 (pBP220) (P62942 2-108 F37V): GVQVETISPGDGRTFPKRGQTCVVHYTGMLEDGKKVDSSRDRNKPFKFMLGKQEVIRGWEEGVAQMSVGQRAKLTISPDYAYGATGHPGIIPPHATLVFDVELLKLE
Sequence of iC9 (pBP220) (P55211 135-416 partner limits assumed): as the sequence (P55211 135-416 partner limits assumed) above

[6] = tested on: luciferase-expressing U266 myeloma cells; assay: NSG mice engrafted with U266 myeloma cells, iMC-PRAME TCR T cells with rimiducid; format: in vivo, mouse
Experimental: FIG. 121: (A) NSG mice were engrafted with 1×10^6 luciferase-expressing U266 myeloma cells and treated with […] non-transduced, PRAME TCR- or iMC-PRAME TCR-transduced T cells on day 13. […] (B) Tumor growth was measured by bioluminescence imaging.

[7] = biological target: iRmC9 (pBP1327 & pBP1328) (Homo sapiens, UniProt P42345+P62942, F37V); assay: SRα-SEAP assay of drug specificity, iRmC9 switch, 293 cells; details: SRα-SEAP reporter
Sequence of iRmC9 (pBP1327 & pBP1328) (P42345 2025-2113): as the sequence (P42345 2025-2113) above
Sequence of iRmC9 (pBP1327 & pBP1328) (P62942 2-107 F37V): as the sequence (P62942 2-107) above, with F36V counted along it
Sequence of iRmC9 (pBP1327 & pBP1328) (P55211 135-416 partner limits assumed): as the sequence (P55211 135-416 partner limits assumed) above

[8] = tested on: NF-κB; assay: NF-κB SeAP reporter assay of inducible MyD88/CD40 activity; format: cell-based
Experimental: 293T cells were transfected with 1 μg of reporter construct NF-κB SeAP and 4 μg of the iMC+CARζ construct pBP0774 or the MC-rap-CAR construct pBP1440 using the GeneJuice protocol (Novagen). […] After 24 hours of further incubation SeAP activity was determined from cell supernatants.
HEK 293T cells (1.5×10^5) were seeded on a 100-mm tissue culture dish in 10 mL DMEM4500, supplemented with glutamine, penicillin/streptomycin and 10% fetal calf serum. After 16-30 hours incubation, cells were transfected using Novagen's GeneJuice® protocol. Briefly, for each transfection, 0.5 mL OptiMEM was pipetted into a 1.5-mL microcentrifuge tube and 15 μL GeneJuice reagent added followed by 5 sec. vortexing. Samples were rested 5 minutes to settle the GeneJuice suspension. DNA (5 μg total) was added to each tube and mixed by pipetting up and down four times. Samples were allowed to rest for 5 minutes for GeneJuice-DNA complex formation and the suspension added dropwise to one dish of 293T cells. A typical transfection contains 1 μg NFkB-SEAP (5), 4 μg iMC+CARζ(pBP0774) or 4 μg MC-Rap-CAR (pBP1440) (1).
24 hours following transfection (4.1), 293T cells were split to 96-well plates and incubated with dilutions of dimerizing drugs. Briefly, 100 μL media was added to each well of a 96-well flat-bottom plate. Drugs were diluted in tubes to a concentration 4× the top concentration in the gradient to be place on the plate. […] 100 μL from each drug-containing well was then transferred to the adjacent well and the cycle repeated 10 times to produce a serial two-fold step gradient. The last wells were untreated and serve as a control for basal reporter activity. Transfected 293 cells were then trypsinized, washed with complete media, suspended in media and 100 μL aliquoted to each well containing drug (or no drug). Cells were incubated 24 hours.
24 hours after drug stimulation, 96-well plates were wrapped to prevent evaporation and incubated at 65° C. for 2 hours to inactivate endogenous and serum phosphatases while the heat-stable SeAP reporter remains (3, 12, 14). 100 μL samples from each well were loaded into individual wells of a 96-well assay plate with black sides. Samples were incubated with 0.5 mM 4-methylumbelliferyl phosphate (4-MUP) in 0.5 M diethanolamine at pH 10.0 for 4 to 16 hours. Phosphatase activity was measured by fluorescence with excitation at 355 nm and emission at 460 nm. Data was transferred to a Microsoft Excel spreadsheet for tabulation and graphed with GraphPad Prism.

[9] = tested on: iRmC9 T cells (pBP1327, GFP-Fluc); assay: Drug titration of rimiducid and rapamycin in mice bearing iRmC9 T cells; format: in vivo, mouse; details: NSG mice; rimiducid 0.00005-5 mg/kg or rapamycin 0.0001-10 mg/kg i.p.; FIGS. 110B & C
Experimental: In this experiment, iRmC9 T cells were produced by co-transduction with pBP1327 and GFP-Fluc retroviruses from donor 584. […] Ten million iRmC9 T cells were injected IV per mouse (Table 10) (time=−14 hr). […] Vehicle groups received either PBS, 25% solutol in PBS or 5% DMA in PT. IVIS imaging was performed at −10, 0, 6, and 24 hours. Mice were sacrificed and spleens were collected for FACS analysis with hCD3, hCD19 and mCD45 antibodies. […] This observation is similar to that observed in the previous experiment (FIG. 109B) and could be due to the components of the PT.
FIG. 110. […] PBMCs from donor 584 were activated and co-transduced with retroviruses encoding the pBP1327 vector and the GFP-Fluc plasmid. (FIG. 110A) Ten days post-transduction, the cells were analyzed for CD19 and GFP transduction efficiency prior to injection into mice. (FIGS. 110B & C) NSG mice were injected i.v. with 1×10^7 T cells co-transduced with GFP-Fluc per mouse and suicide drugs were injected i.p. the next day. Bioluminescence of cells was assessed at −10, 0, 6, and 24 hours post drug administration. (FIG. 110D) At 24 h post-drug treatment, mice were euthanized and spleens were collected for flow cytometry analysis with antibodies to hCD3, […], and mCD45.

[10] = tested on: transduced T cells; assay: T cell caspase assay (IncuCyte, caspase 3/7 green reagent); format: cell-based, human
Experimental: To enable detection of apoptosis using the IncuCyte instrument, 2 μM of IncuCyte™ Kinetic Caspase-3/7 Apoptosis reagent (Essen Bioscience, 4440) were add to each well to reach a total volume of 200 μl. The plates were centrifuged for 5 min at 400×g and placed inside the IncuCyte (Dual Color Model 4459) to monitor green fluorescence every 2-3 hours for a total of 48 hours at 10× objective. Image analysis was performed using the “Tcells_caspreagent_phase_green_10×_MLD” processing definition. The “Total Green Object Integrated Intensity” metric is used to quantify caspase activation. Each condition was performed in duplicates and each well was imaged at 4 different locations.
To enable detection of apoptosis using the IncuCyte instrument, 2 μM of IncuCyte™ Kinetic Caspase-3/7 Apoptosis reagent (Essen Bioscience, 4440) was added to each well to reach a total volume of 200 μl. The plates were centrifuged for 5 min at 400×g and placed inside the IncuCyte (Dual Color Model 4459) to monitor green fluorescence every 2-3 hours for a total of 48 hours at 10× objective. Image analysis was performed using the “Tcells_caspreagent_phase_green_10×_MLD” processing definition. The “Total Green Object Integrated Intensity” metric and the “Phase Object Confluence (Percent)” were used to quantify caspase activation. Each condition was performed in duplicate and each well was imaged at 4 different locations.

SMILES	apoptosis index of iCasp9-negative cells ([1]; CID 50 nM) [%]	apoptotic death of iCasp9-positive cells within 24 hrs ([1]; CID 50 nM) [%]	annexin positive, negative population (iCasp neg/CID) ([1]; CID 50 nM, 24 hours, FACS) [%]	annexin positive, non-transduced control MSC (Control/CID) ([1]; CID 50 nM, 24 hours, FACS) [%]	cell density after 24 hours ([1]; adipocytic differentiated iCasp9-positive cells, 50 nM CID, from 584) [cells/mm^2]	apoptotic cells among magnetically immunoselected iCasp9-CD19-positive cells ([1]; after exposure to CID)	activation of iC9 in T cells (caspase 3/7) [2]	rimiducid concentration required to activate iRC9 [3] [nM]	activity of negative control ΔC9 alone (pBP1501) in T cells [4]	activation of the iC9 switch [5]	number of Vβ1+CD8+ T cells in spleen ([6]; 5 mg/kg rimiducid i.p. weekly day 14 to 38, spleens day 94, FIG. 121C)	anti-tumor efficacy of TCR-modified T cells with rimiducid-driven iMC activation ([6]; summary, in vitro and in vivo)	activation of the iRmC9 switch [7]	EC50 ([8]; MC-rap-CAR construct pBP1440, read-out: EC50 / concentration stimulating NF-κB reporter activity via MC-Rap) [nM]	concentration inducing NF-κB reporter via iMC ([8]; iMC+CARζ construct BP774)	IVIS imaging of iRmC9 T cells in dose titration [9]	dimerization/activation of FKBP.FRB.Δcasp9 (iRC9) ([10]; 20 nM rimiducid)	concentration at which iC9 was observed to be activated ([10]; MC-Rap + CAR + iC9 constructs) [µM]
CC[C@H](C(=O)N1CCCC[C@H]1C(=O)O[C@H](CCc1ccc(OC)c(OC)c1)c1cccc(OCC(=O)NCC(CNC(=O)COc2cccc([C@@H](CCc3ccc(OC)c(OC)c3)OC(=O)[C@@H]3CCCCN3C(=O)[C@@H](CC)c3cc(OC)c(OC)c(OC)c3)c2)CN(C)C)c1)c1cc(OC)c(OC)c(OC)c1 [AP20187]	20±7	93±1	19	15	< 14	More than 95%	–	–	–	–	–	–	–	–	–	–	–	–
CC[C@H](C(=O)N1CCCC[C@H]1C(=O)O[C@H](CCc1ccc(OC)c(OC)c1)c1cccc(OCC(=O)NCCNC(=O)COc2cccc([C@@H](CCc3ccc(OC)c(OC)c3)OC(=O)[C@@H]3CCCCN3C(=O)[C@@H](CC)c3cc(OC)c(OC)c(OC)c3)c2)c1)c1cc(OC)c(OC)c(OC)c1 [rimiducid]	–	–	–	–	–	–	can activate	> 100	not active	can activate	significantly increased	improved anti-tumor efficacy	can activate	> 50	subnanomolar	dose-dependent removal	unable to induce dimerization	< 100
